{"source": "PubChem BioAssay AID1259407", "about": "(Chemical Carcinogenesis Research Information System (CCRIS), 2018)", "tested_on": "CCRIS mutagenicity, Ames/micronucleus/aberration tests", "assay": "CCRIS mutagenicity studies", "key": {"[1]": {"conditions": "Test System: AMES SALMONELLA TYPHIMURIUM, Strain/Indicator: TA98, Metabolic Activation: NONE, Method: STANDARD PLATE"}, "[2]": {"conditions": "Test System: AMES SALMONELLA TYPHIMURIUM, Strain/Indicator: TA100, Metabolic Activation: NONE, Method: STANDARD PLATE"}, "[3]": {"conditions": "Test System: AMES SALMONELLA TYPHIMURIUM, Strain/Indicator: TA100, Metabolic Activation: RAT, LIVER, S-9, AROCLOR 1254, Method: STANDARD PLATE"}, "[4]": {"conditions": "Test System: AMES SALMONELLA TYPHIMURIUM, Strain/Indicator: TA1535, Metabolic Activation: NONE, Method: STANDARD PLATE"}, "[5]": {"conditions": "Test System: AMES SALMONELLA TYPHIMURIUM, Strain/Indicator: TA1537, Metabolic Activation: NONE, Method: STANDARD PLATE"}, "[6]": {"conditions": "Test System: AMES SALMONELLA TYPHIMURIUM, Strain/Indicator: TA1537, Metabolic Activation: RAT, LIVER, S-9, AROCLOR 1254, Method: STANDARD PLATE"}}, "note": "The source made the active and inactive calls. The rule behind the calls is not given here."}
{"smiles": "COc1cccc2c1cc1c3c(cc4c(c32)OCO4)C(=O)N1", "values": [{"measurement": "mutagenic call", "setting": "Test System: AMES SALMONELLA TYPHIMURIUM, Strain/Indicator: D3052, Metabolic Activation: NONE, Method: STANDARD PLATE", "value": "inactive; negative"}, {"measurement": "mutagenic call", "setting": "Test System: AMES SALMONELLA TYPHIMURIUM, Strain/Indicator: D3052, Metabolic Activation: RAT, LIVER, S-9, PHENOBARBITAL, Method: STANDARD PLATE", "value": "inactive; negative"}, {"measurement": "mutagenic call", "setting": "Test System: AMES SALMONELLA TYPHIMURIUM, Strain/Indicator: G46, Metabolic Activation: NONE, Method: STANDARD PLATE", "value": "inactive; negative"}, {"measurement": "mutagenic call", "setting": "Test System: AMES SALMONELLA TYPHIMURIUM, Strain/Indicator: G46, Metabolic Activation: RAT, LIVER, S-9, PHENOBARBITAL, Method: STANDARD PLATE", "value": "inactive; negative"}, {"measurement": "mutagenic call", "setting": "[1]", "value": "inactive; negative"}, {"measurement": "mutagenic call", "setting": "Test System: AMES SALMONELLA TYPHIMURIUM, Strain/Indicator: TA98, Metabolic Activation: RAT, LIVER, S-9, PHENOBARBITAL, Method: STANDARD PLATE", "value": "inactive; negative"}, {"measurement": "mutagenic call", "setting": "[2]", "value": "inactive; negative"}, {"measurement": "mutagenic call", "setting": "[3]", "value": "active; positive"}, {"measurement": "mutagenic call", "setting": "Test System: AMES SALMONELLA TYPHIMURIUM, Strain/Indicator: TA100, Metabolic Activation: RAT, LIVER, S-9, PHENOBARBITAL, Method: STANDARD PLATE", "value": "inactive; negative"}, {"measurement": "mutagenic call", "setting": "[4]", "value": "inactive; negative"}, {"measurement": "mutagenic call", "setting": "Test System: AMES SALMONELLA TYPHIMURIUM, Strain/Indicator: TA1535, Metabolic Activation: RAT, LIVER, S-9, PHENOBARBITAL, Method: STANDARD PLATE", "value": "inactive; negative"}, {"measurement": "mutagenic call", "setting": "[5]", "value": "inactive; negative"}, {"measurement": "mutagenic call", "setting": "[6]", "value": "active; positive"}, {"measurement": "mutagenic call", "setting": "Test System: AMES SALMONELLA TYPHIMURIUM, Strain/Indicator: TA1978, Metabolic Activation: NONE, Method: STANDARD PLATE", "value": "inactive; negative"}, {"measurement": "mutagenic call", "setting": "Test System: AMES SALMONELLA TYPHIMURIUM, Strain/Indicator: TA1978, Metabolic Activation: RAT, LIVER, S-9, PHENOBARBITAL, Method: STANDARD PLATE", "value": "inactive; negative"}, {"measurement": "mutagenic call", "setting": "Test System: AMES SALMONELLA TYPHIMURIUM, Strain/Indicator: TM677/8-AZAGUANINE, Metabolic Activation: NONE, Method: SUSPENSION/PLATE", "value": "inactive; negative"}]}
{"smiles": "C=C(C)C(=O)OCCOCCOC(=O)C(=C)C", "values": [{"measurement": "mutagenic call", "setting": "[1]", "value": "inactive; negative"}, {"measurement": "mutagenic call", "setting": "Test System: AMES SALMONELLA TYPHIMURIUM, Strain/Indicator: TA98, Metabolic Activation: RAT, LIVER, S-9, AROCLOR 1254, Method: STANDARD PLATE", "value": "inactive; negative"}, {"measurement": "mutagenic call", "setting": "Test System: AMES SALMONELLA TYPHIMURIUM, Strain/Indicator: TA98, Metabolic Activation: RAT, LIVER, S-9, SODIUM PHENOBARBITAL, Method: STANDARD PLATE", "value": "inactive; negative"}, {"measurement": "mutagenic call", "setting": "[2]", "value": "inactive; negative"}, {"measurement": "mutagenic call", "setting": "[3]", "value": "inactive; negative"}, {"measurement": "mutagenic call", "setting": "Test System: AMES SALMONELLA TYPHIMURIUM, Strain/Indicator: TA100, Metabolic Activation: RAT, LIVER, S-9, SODIUM PHENOBARBITAL, Method: STANDARD PLATE", "value": "inactive; negative"}, {"measurement": "mutagenic call", "setting": "[4]", "value": "inactive; negative"}, {"measurement": "mutagenic call", "setting": "Test System: AMES SALMONELLA TYPHIMURIUM, Strain/Indicator: TA1535, Metabolic Activation: RAT, LIVER, S-9, AROCLOR 1254, Method: STANDARD PLATE", "value": "inactive; negative"}, {"measurement": "mutagenic call", "setting": "Test System: AMES SALMONELLA TYPHIMURIUM, Strain/Indicator: TA1535, Metabolic Activation: RAT, LIVER, S-9, SODIUM PHENOBARBITAL, Method: STANDARD PLATE", "value": "inactive; negative"}, {"measurement": "mutagenic call", "setting": "[5]", "value": "inactive; negative"}, {"measurement": "mutagenic call", "setting": "[6]", "value": "inactive; negative"}, {"measurement": "mutagenic call", "setting": "Test System: AMES SALMONELLA TYPHIMURIUM, Strain/Indicator: TA1537, Metabolic Activation: RAT, LIVER, S-9, SODIUM PHENOBARBITAL, Method: STANDARD PLATE", "value": "inactive; negative"}, {"measurement": "mutagenic call", "setting": "Test System: AMES SALMONELLA TYPHIMURIUM, Strain/Indicator: TA1538, Metabolic Activation: NONE, Method: STANDARD PLATE", "value": "inactive; negative"}, {"measurement": "mutagenic call", "setting": "Test System: AMES SALMONELLA TYPHIMURIUM, Strain/Indicator: TA1538, Metabolic Activation: RAT, LIVER, S-9, AROCLOR 1254, Method: STANDARD PLATE", "value": "inactive; negative"}, {"measurement": "mutagenic call", "setting": "Test System: AMES SALMONELLA TYPHIMURIUM, Strain/Indicator: TA1538, Metabolic Activation: RAT, LIVER, S-9, SODIUM PHENOBARBITAL, Method: STANDARD PLATE", "value": "inactive; negative"}]}
{"smiles": "C=CCOC(=O)CCCCC", "values": [{"measurement": "mutagenic call", "setting": "Test System: AMES SALMONELLA TYPHIMURIUM, Strain/Indicator: TA97, Metabolic Activation: NONE, Method: PREINCUBATION", "value": "inactive; negative"}, {"measurement": "mutagenic call", "setting": "Test System: AMES SALMONELLA TYPHIMURIUM, Strain/Indicator: TA97, Metabolic Activation: RAT, LIVER, S-9, AROCLOR 1254, Method: PREINCUBATION", "value": "inactive; negative"}, {"measurement": "mutagenic call", "setting": "Test System: AMES SALMONELLA TYPHIMURIUM, Strain/Indicator: TA102, Metabolic Activation: NONE, Method: PREINCUBATION", "value": "inactive; negative"}, {"measurement": "mutagenic call", "setting": "Test System: AMES SALMONELLA TYPHIMURIUM, Strain/Indicator: TA102, Metabolic Activation: RAT, LIVER, S-9, AROCLOR 1254, Method: PREINCUBATION", "value": "inactive; negative"}]}
{"smiles": "NC(=O)N/N=C(/CCN1CCCCC1)c1ccc([N+](=O)[O-])o1", "values": [{"measurement": "mutagenic call", "setting": "Test System: E. COLI, Strain/Indicator: WP2, Metabolic Activation: NONE, Method: SPOT", "value": "active; positive"}, {"measurement": "mutagenic call", "setting": "Test System: E. COLI, Strain/Indicator: WP2 UVRA, Metabolic Activation: NONE, Method: SPOT", "value": "active; positive"}]}
